The target in one assay is T1, human σ2/TMEM97 receptor (Homo sapiens, UniProt Q5BJF2).
T1 construct: expressed in transfected cells; host or cells: HEK-293
As to the kind of experiment: Binding assay to human σ2/TMEM97 receptor ([3H]-DTG). To be noted: transfected HEK-293 membranes, 10 nM [3H]-DTG, 25° C., 120 minutes; read-out: Binding σ-[…] (binding to σ2-receptor expressed as Ki). An outline of the steps: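 Membranes from transfected HEK-293 cells incubated with 10 nM [3H]-DTG in 50 mM Tris-HCl pH 8.0, 120 min at 25 °C; non-specific binding defined with 10 μM haloperidol. Bound radioactivity counted after filtration; compounds tested as % inhibition at 1 or 10 μM or at five concentrations for Ki.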

For another assay, the target named is T2, human σ1 receptor (Homo sapiens, UniProt Q99720).
T2 construct: expressed in transfected cells; host or cells: HEK-293
Description: Human σ1 receptor radioligand assay ([3H](+)-pentazocine). It is filed as binding. Summed up: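 Binding used [3H](+)-pentazocine, 120 min at 37° C, with non-specific binding defined by 10 μM haloperidol. Bound radioligand was collected by filtration, washed with ice-cold 10 mM Tris-HCl pH 7.4 and counted by scintillation.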

A further assay concerns the target sigma-2 site (Homo sapiens, UniProt Q5BJF2). To be noted: background statement; cited from earlier work.
Assay [1] concerns mechanical hypersensitivity in SNI mice. Conditions: SNI mice model of neuropathic pain; cited from earlier work.
Where [2] appears, read: transfected HEK-293 membranes, 5 nM [3H](+)-pentazocine, 37° C., 120 minutes, read-out: Binding σ-[…] (binding to σ1-receptor expressed as Ki).

Read-outs that look alike come from different tables or passages of the source.

The values below come from patent US20240174671A1, “New 2,3-Dihydro-1H-pyrrolo[3,2-b]pyridine Derivatives as Sigma Ligands” (ACONDICIONAMIENTO TARRASENSE, priority 2021, published 2024).

In general, Ki refers to a dissociation constant, usually derived from enzyme kinetics or from competition with a known ligand.

T2 sequence (Q99720 whole entry): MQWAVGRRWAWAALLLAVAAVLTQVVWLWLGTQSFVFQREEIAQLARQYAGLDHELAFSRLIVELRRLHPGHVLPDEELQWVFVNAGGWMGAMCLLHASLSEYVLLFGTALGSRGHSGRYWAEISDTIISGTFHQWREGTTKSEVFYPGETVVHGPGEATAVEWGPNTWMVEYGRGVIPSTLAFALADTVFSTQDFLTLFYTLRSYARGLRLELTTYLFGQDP
T1 sequence (Q5BJF2 whole entry): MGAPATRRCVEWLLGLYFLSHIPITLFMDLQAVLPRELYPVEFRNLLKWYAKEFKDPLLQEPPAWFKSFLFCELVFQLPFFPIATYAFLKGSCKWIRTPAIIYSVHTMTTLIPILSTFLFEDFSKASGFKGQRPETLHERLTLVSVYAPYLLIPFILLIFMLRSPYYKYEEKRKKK
Sequence of sigma-2 site (Q5BJF2 whole entry): as above

With `Cc1ccc2c(n1)C(C)(C)CN2C(=O)[C@H]1CC[C@H](N(C)Cc2ccc(F)c(F)c2)CC1` [Example 170, ((1r,4r)-4-((3,4-difluorobenzyl)(methyl)amino)cyclohexyl)(3,3,5-trimethyl-2,3-dihydro-1H-pyrrolo[3,2-b]pyridin-1-yl)methanone], the Ki on human σ2/TMEM97 receptor and on human σ1 receptor (setting [2]) was less than 100 nM throughout. On to `Cc1ccc2c(n1)C(C)(C)CN2C(=O)[C@H]1CC[C@H](N(C)Cc2c(F)cccc2F)CC1` [Example 171, ((1r,4r)-4-((2,6-difluorobenzyl)(methyl)amino)cyclohexyl)(3,3,5-trimethyl-2,3-dihydro-1H-pyrrolo[3,2-b]pyridin-1-yl)methanone], for which the Ki at human σ2/TMEM97 receptor and at human σ1 receptor (setting [2]) was less than 100 nM each time.

In the case of `Cc1ccc2c(n1)C(C)(C)CN2C(=O)[C@H]1CC[C@H](N(C)Cc2ccc(F)cc2F)CC1` [Example 172, ((1r,4r)-4-((2,4-difluorobenzyl)(methyl)amino)cyclohexyl)(3,3,5-trimethyl-2,3-dihydro-1H-pyrrolo[3,2-b]pyridin-1-yl)methanone], the Ki on human σ2/TMEM97 receptor and on human σ1 receptor (setting [2]) was less than 100 nM each time. With `Cc1ccc2c(n1)C(C)(C)CN2C(=O)[C@H]1CC[C@H](N(C)Cc2cc(F)ccc2F)CC1` [Example 173, ((1r,4r)-4-((2,5-difluorobenzyl)(methyl)amino)cyclohexyl)(3,3,5-trimethyl-2,3-dihydro-1H-pyrrolo[3,2-b]pyridin-1-yl)methanone], the Ki at human σ2/TMEM97 receptor and at human σ1 receptor (setting [2]) was less than 100 nM each time. Consider `Cc1ccc2c(n1)C(C)(C)CN2C(=O)[C@H]1CC[C@H](N(C)Cc2cccc(F)c2F)CC1` [Example 174, ((1r,4r)-4-((2,3-difluorobenzyl)(methyl)amino)cyclohexyl)(3,3,5-trimethyl-2,3-dihydro-1H-pyrrolo[3,2-b]pyridin-1-yl)methanone], for which the Ki on human σ2/TMEM97 receptor and on human σ1 receptor (setting [2]) was less than 100 nM throughout. `CN(Cc1ccccc1F)[C@H]1CC[C@H](C(=O)N2CC(C)(C)c3ncccc32)CC1` [Example 175, (3,3-dimethyl-2,3-dihydro-1H-pyrrolo[3,2-b]pyridin-1-yl)((1r,4r)-4-((2-fluorobenzyl)(methyl)amino)cyclohexyl)methanone]: the Ki on human σ2/TMEM97 receptor and at human σ1 receptor (setting [2]) was less than 100 nM each time. Take `CN(Cc1cc(F)ccc1F)[C@H]1CC[C@H](C(=O)N2CC(C)(C)c3ncccc32)CC1` [Example 176, ((1r,4r)-4-((2,5-difluorobenzyl)(methyl)amino)cyclohexyl)(3,3-dimethyl-2,3-dihydro-1H-pyrrolo[3,2-b]pyridin-1-yl)methanone]: the Ki on human σ2/TMEM97 receptor and at human σ1 receptor (setting [2]) was less than 100 nM in each case.

On to `Cc1ccc2c(n1)C(C)(C)CN2C(=O)[C@H]1CC[C@H](N(C)Cc2ccnc(C(F)(F)F)c2)CC1` [Example 177, ((1r,4r)-4-(methyl((2-(trifluoromethyl)pyridin-4-yl)methyl)amino)cyclohexyl)(3,3,5-trimethyl-2,3-dihydro-1H-pyrrolo[3,2-b]pyridin-1-yl)methanone], for which the Ki on human σ2/TMEM97 receptor was less than 100 nM; at human σ1 receptor (setting [2]) it was 100 to 500 nM. Turning to `Cc1ccc2c(n1)C(C)(C)CN2C(=O)[C@H]1CC[C@H](N(C)Cc2ncccc2F)CC1` [Example 178, ((1r,4r)-4-(((3-fluoropyridin-2-yl)methyl)(methyl)amino)cyclohexyl)(3,3,5-trimethyl-2,3-dihydro-1H-pyrrolo[3,2-b]pyridin-1-yl)methanone], the Ki on human σ2/TMEM97 receptor was 100 to 500 nM; at human σ1 receptor (setting [2]) it was less than 100 nM. In the case of `Cc1ccc2c(n1)C(C)(C)CN2C(=O)[C@H]1CC[C@H](N(C)Cc2ccc(F)cn2)CC1` [Example 179, ((1r,4r)-4-(((5-fluoropyridin-2-yl)methyl)(methyl)amino)cyclohexyl)(3,3,5-trimethyl-2,3-dihydro-1H-pyrrolo[3,2-b]pyridin-1-yl)methanone], the inhibitory constant (Ki) at human σ2/TMEM97 receptor is 100 to 500 nM; at human σ1 receptor (setting [2]), less than 100 nM. In the case of `Cc1ccc2c(n1)C(C)(C)CN2C(=O)[C@H]1CC[C@H](N(C)Cc2ccc(C#N)c(F)c2)CC1` [Example 180, 2-fluoro-4-((methyl((1r,4r)-4-(3,3,5-trimethyl-2,3-dihydro-1H-pyrrolo[3,2-b]pyridine-1-carbonyl)cyclohexyl)amino)methyl)benzonitrile], the Ki on human σ2/TMEM97 receptor and on human σ1 receptor (setting [2]) was less than 100 nM in each case. Take `Cc1ccc2c(n1)C(C)(C)CN2C(=O)[C@H]1CC[C@H](N(C)Cc2ccc(F)c(C#N)c2)CC1` [Example 181, 2-fluoro-5-((methyl((1r,4r)-4-(3,3,5-trimethyl-2,3-dihydro-1H-pyrrolo[3,2-b]pyridine-1-carbonyl)cyclohexyl)amino)methyl)benzonitrile]: the Ki at human σ2/TMEM97 receptor and at human σ1 receptor (setting [2]) was less than 100 nM each time. For the molecule `Cc1ccc2c(n1)C(C)(C)CN2C(=O)[C@H]1CC[C@H](N(C)Cc2ccc(F)cc2)CC1` [Example 182, ((1r,4r)-4-((4-fluorobenzyl)(methyl)amino)cyclohexyl)(3,3,5-trimethyl-2,3-dihydro-1H-pyrrolo[3,2-b]pyridin-1-yl)methanone], the Ki on human σ2/TMEM97 receptor and at human σ1 receptor (setting [2]) was less than 100 nM throughout. For the molecule `Cc1ccc2c(n1)C(C)(C)CN2C(=O)[C@H]1CC[C@H](N(C)Cc2ccccc2F)CC1` [Example 183, ((1r,4r)-4-((2-fluorobenzyl)(methyl)amino)cyclohexyl)(3,3,5-trimethyl-2,3-dihydro-1H-pyrrolo[3,2-b]pyridin-1-yl)methanone], the Ki on human σ2/TMEM97 receptor and on human σ1 receptor was less than 100 nM in each case. Consider `Cc1ccc2c(n1)C(C)(C)CN2C(=O)[C@H]1CC[C@H](N(C)Cc2ccc(C(F)(F)F)nc2)CC1` [Example 184, ((1r,4r)-4-(methyl((6-(trifluoromethyl)pyridin-3-yl)methyl)amino)cyclohexyl)(3,3,5-trimethyl-2,3-dihydro-1H-pyrrolo[3,2-b]pyridin-1-yl)methanone], for which the Ki at human σ2/TMEM97 receptor and at human σ1 receptor (setting [2]) was less than 100 nM in each case. With `Cc1ccc2c(n1)C(C)(C)CN2C(=O)[C@H]1CC[C@H](N(C)CC2CCOCC2)CC1` [Example 185, ((1r,4r)-4-(methyl((tetrahydro-2H-pyran-4-yl)methyl)amino)cyclohexyl)(3,3,5-trimethyl-2,3-dihydro-1H-pyrrolo[3,2-b]pyridin-1-yl)methanone], the Ki was less than 100 nM on human σ2/TMEM97 receptor and 100 to 500 nM on human σ1 receptor (setting [2]). In the same order, the values of `CN(Cc1ccccc1)[C@H]1CC[C@H](C(=O)N2CC(C)(C)c3nc(C(F)(F)F)ccc32)CC1` [Example 186, ((1r,4r)-4-(benzyl(methyl)amino)cyclohexyl)(3,3-dimethyl-5-(trifluoromethyl)-2,3-dihydro-1H-pyrrolo[3,2-b]pyridin-1-yl)methanone] are greater than 1000 nM and less than 100 nM. Regarding `CN(Cc1ccccc1)[C@H]1CC[C@H](C(=O)N2CC(C)(C)c3ncc(F)cc32)CC1` [Example 187, ((1r,4r)-4-(benzyl(methyl)amino)cyclohexyl)(6-fluoro-3,3-dimethyl-2,3-dihydro-1H-pyrrolo[3,2-b]pyridin-1-yl)methanone], the Ki on human σ2/TMEM97 receptor and at human σ1 receptor (setting [2]) was less than 100 nM in each case. As for `Cc1ccc2c(n1)C(C)(C)CN2C(=O)[C@H]1CC[C@H](NCc2ccccc2F)CC1` [Example 188, ((1r,4r)-4-((2-fluorobenzyl)amino)cyclohexyl)(3,3,5-trimethyl-2,3-dihydro-1H-pyrrolo[3,2-b]pyridin-1-yl)methanone], the Ki at human σ2/TMEM97 receptor and at human σ1 receptor (setting [2]) was less than 100 nM throughout. As for (+)-SKF-10047, on sigma-2 site, the “affinity for the sigma-2 site” value was “micromolar affinity”.

In the case of UKH-1114, in assay [1], the mechanical hypersensitivity entry was “relieved mechanical hypersensitivity”.
